From patent US9067922B2, “Chemical compounds” (Pfizer Limited, priority 2013, dated 2015)
Read-outs that look alike come from different tables or passages of the source.

Biological target: URAT-1 transporter (Homo sapiens (Human), UniProt Q96S37)
Assay: URAT-1 inhibitor activity: [14C]-uric acid uptake in CHO-URAT1(L)GFP#8 (CHO#8) cells, scintillation proximity
Type: cell-based
Procedure, shortened: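 CHO cells stably expressing human URAT1 long isoform–eGFP fusion, pre-incubated 1 h in chloride-containing buffer pH 7.4, then given 30 nM [14C]-uric acid with compound (0–10 μM, 0.25% DMSO) in chloride-free gluconate buffer pH 7.4. Uptake measured by scintillation proximity on Cytostar plates.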

[1] = inhibition of [14C]-uric acid (30 nM) uptake into CHO#8 cells, compound 0 to 10 μM, 4 parameter logistic fit

Chain of URAT-1 transporter (Q96S37 other isoform, or with tags, fused parts or gaps): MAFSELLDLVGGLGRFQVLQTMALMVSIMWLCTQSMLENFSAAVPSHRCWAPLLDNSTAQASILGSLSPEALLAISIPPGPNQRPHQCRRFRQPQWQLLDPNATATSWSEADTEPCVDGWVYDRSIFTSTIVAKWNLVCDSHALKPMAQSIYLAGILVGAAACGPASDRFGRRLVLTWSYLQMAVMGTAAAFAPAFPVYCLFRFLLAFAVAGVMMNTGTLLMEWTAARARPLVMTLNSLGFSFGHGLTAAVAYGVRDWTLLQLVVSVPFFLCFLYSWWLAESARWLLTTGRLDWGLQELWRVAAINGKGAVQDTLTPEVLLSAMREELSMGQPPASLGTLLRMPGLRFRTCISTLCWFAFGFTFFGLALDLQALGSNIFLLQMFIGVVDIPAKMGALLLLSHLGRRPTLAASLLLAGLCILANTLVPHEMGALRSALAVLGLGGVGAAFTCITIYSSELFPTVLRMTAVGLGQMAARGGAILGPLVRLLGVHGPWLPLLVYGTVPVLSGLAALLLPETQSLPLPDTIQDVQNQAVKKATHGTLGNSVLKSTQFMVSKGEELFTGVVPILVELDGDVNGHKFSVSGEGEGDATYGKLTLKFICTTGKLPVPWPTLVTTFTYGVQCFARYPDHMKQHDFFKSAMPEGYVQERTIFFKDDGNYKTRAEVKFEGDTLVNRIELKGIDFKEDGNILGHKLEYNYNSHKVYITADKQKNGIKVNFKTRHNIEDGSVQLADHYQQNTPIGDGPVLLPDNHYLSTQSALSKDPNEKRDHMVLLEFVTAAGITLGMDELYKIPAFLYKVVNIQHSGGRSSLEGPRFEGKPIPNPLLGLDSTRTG

| SMILES | IC50 [1] | IC50 |
| --- | --- | --- |
| N#Cc1cc(S(=O)(=O)Nc2ccc(F)cn2)ccc1Oc1cc(Cl)ccc1C#N [Example 65, 4-(5-chloro-2-cyanophenoxy)-3-cyano-N-(5-fluoropyridin-2-yl)benzenesulfonamide] | 182 nM | – |
| Cc1ccc(F)c(Oc2ccc(S(=O)(=O)Nc3ccc(F)cn3)cc2C#N)c1Cl [Example 108, 4-(2-chloro-6-fluoro-3-methylphenoxy)-3-cyano-N-(5-fluoropyridin-2-yl)benzenesulfonamide] | 98 nM | – |
| N#Cc1cc(S(=O)(=O)Nc2ccc(F)cn2)ccc1Oc1ccccc1C(F)(F)F [Example 51, 3-cyano-N-(5-fluoropyridin-2-yl)-4-[2-(trifluoromethyl)phenoxy]benzenesulfonamide] | 171 nM | – |
| Cc1ncccc1Oc1ccc(S(=O)(=O)Nc2ccc(F)cn2)cc1C#N [Example 184, 3-cyano-N-(5-fluoropyridin-2-yl)-4-[(2-methylpyridin-3-yl)oxy]benzenesulfonamide] | 385 nM | – |
| COc1cc(Oc2ccc(S(=O)(=O)Nc3ccc(F)cn3)cc2C#N)ccc1Cl [Example 71, 4-(4-chloro-3-methoxyphenoxy)-3-cyano-N-(5-fluoropyridin-2-yl)benzenesulfonamide] | 27 nM | – |
| [2H]c1c(Oc2ccc(S(=O)(=O)Nc3ccc(F)cn3)c(F)c2)c([2H])c(C([2H])([2H])[2H])c(C#N)c1C([2H])([2H])[2H] [Example 249] | – | 21 nM |
